In patent publication US6156758A, “Antibacterial quinazoline compounds” (Isis Pharmaceuticals, Inc., priority 1999, dated 2000) one finds MIC data, which are given here for 21 compounds.

What all share (type): cell-based
The test system of experiment [1] is S. pyogenes. The experiment is described as follows: MIC determination, initial screen, S. pyogenes. The conditions noted are these: Streptococcus pyogenes, ATCC14289; Table 1; ATCC 14289 (initial screen); 24 h, A595. The text has this:
(§1) The Streptococcus pyogenes strains, Klebsiella pneumoniae, Escherichia coli, Staphylococcus aureus, Enterococcus faecalis used in the antibacterial activity studies ATCC 14289, 49399, 13883, 25922, 13709, 29212, respectively, were obtained from the American Type Culture Collection, Rockville, Md. The strain E. coli imp- is a mutant strain of wild type E. coli with increased outer membrane permeability. In initial screens, E. coli imp- and S. pyrogenes (ATCC 14289) were used. The E. coli imp-strain was grown in LB broth, and the S. pyogenes strain was grown in Todd-Hewitt broth. Interesting compounds were further evaluated in the tier II screens against other bacterial screens. S. aureus was grown in trypticase soy broth, E. faecalis in Todd-Hewitt broth, wild type E. coli and K. pneumoniae, in nutrient broth. All bacterial were grown at 37° C.
(§2) The assays were carried out in 150 μL volume in duplicate in 96-well clear flat-bottom plates. The bacterial suspension from an overnight culture growth in appropriate medium was added to a solution of test compound in 4% DMSO in water. Final bacterial inoculum was approximately 10^5 -10^6 CFU/well. The percent growth of the bacteria in test wells relative to that observed for a well containing no compound was determined by measuring absorbance at 595 nm (A595) after 24 h. […] Both ampicillin and tetracycline were used as antibiotic-positive controls in each screening assay for S. pyogenes, E. coli imp-, E. coli, S. aureus, E. faecalis, K. pneumoniae and P. vulgaris. Ciprofloxacin was used as an antibiotic positive control in each screening assay for P. aeruginosa.

A further experiment has as its system E. coli imp-. The experiment is described as follows: MIC determination, initial screen, E. coli imp-. The settings on record: Escherichia coli, 24 h, read-out: MIC E. coli imp.
Description: as §1, §2

In another experiment the test system is K. pneumoniae. The experiment is described as follows: MIC determination, tier II screen, K. pneumoniae (#13883). The settings on record: Klebsiella pneumoniae; Table 2; 24 h, A595.
Description: as §1, §2

A further experiment relates to E. coli. Put plainly: MIC determination, tier II screen, wild type E. coli (#25922). The conditions noted are these: Escherichia coli, Table 2, 24 h, A595.
Description: as §1, §2

The subject of experiment [2] is S. pyogenes. Put plainly: MIC determination, tier II screen, S. pyogenes (#49399). The conditions noted are these: Streptococcus pyogenes; Table 2; 24 h, A595.
Description: as §1, §2

Another experiment deals with S. aureus. The experiment is described as follows: MIC determination, tier II screen, S. aureus (#13709). The conditions noted are these: Staphylococcus aureus; Table 2; 24 h, A595.
Description: as §1, §2

A further experiment concerns E. faecalis. Put plainly: MIC determination, tier II screen, E. faecalis (#29212). The settings on record: Enterococcus faecalis; Table 2; 24 h, A595.
Description: as §1, §2

Values after ≈ are worked out from the molar mass of the structure shown.

In general, MIC refers to the lowest concentration that inhibits growth of the organism. With `COC(=O)c1nc(Cl)c(NC2CCN(c3nc(N)c4cc(OC)c(OC)cc4n3)CC2)nc1N` [Compound 1, 3-Amino-5-[1-(4-amino-6,7-dimethoxy-quinazolin-2-yl)-piperidin-4-ylamino]-6-chloro-pyrazine-2-carboxylic acid methyl ester], the MIC against S. pyogenes [1] was 12 to 25 µM (≈ 5.87 to 12.2 µg/mL); in the experiment on E. coli imp- it was above 25 µM.

`COC(=O)c1ncc(NC2CCN(c3nc(N)c4cc(OC)c(OC)cc4n3)CC2)nc1N` [Compound 2, 3-Amino-5-[1-(4-amino-6,7-dimethoxy-quinazolin-2-yl)-piperidin-4-ylamino]-pyrazine-2-carboxylic acid methyl ester]: the minimum inhibitory concentration (MIC) with S. pyogenes [1] and in the experiment on E. coli imp- was above 50 µM throughout.

Regarding `COC(=O)c1ccc(NC2CCN(c3nc(N)c4cc(OC)c(OC)cc4n3)CC2)nc1` [Compound 3, 6-[1-(4-Amino-6,7-dimethoxy-quinazolin-2-yl)-piperidin-4-ylamino]-nicotinicacid methyl ester], the MIC against S. pyogenes [1] is 25 to 50 µM (≈ 11 to 21.9 µg/mL); in the experiment on E. coli imp- it was above 50 µM.

For the compound `COC(=O)c1ccc(NC2CCN(c3nc(N)c4cc(OC)c(OC)cc4n3)CC2)cc1` [Compound 4, 4-[1-(4-Amino-6,7-dimethoxy-quinazolin-2-yl)-piperidin-4-ylamino]-benzoic acid methyl ester], the MIC with S. pyogenes [1] was 5 to 25 µM (≈ 2.19 to 10.9 µg/mL); in the experiment on E. coli imp- it was 5 to 25 µM (≈ 2.19 to 10.9 µg/mL); in the experiment with K. pneumoniae, above 100 µM; against E. coli, above 100 µM; in the experiment on S. pyogenes [2] it was 5 to 25 µM (≈ 2.19 to 10.9 µg/mL); in the experiment with S. aureus it was above 100 µM. Besides, in the experiment on E. faecalis, the MIC is 20 to 40 µM (≈ 8.75 to 17.5 µg/mL).

Consider `COc1cc2nc(N3CCC(Nc4ccc(C(=O)OC(C)(C)C)cc4)CC3)nc(N)c2cc1OC` [Compound 5, 4-[1-(4-Amino-6,7-dimethoxy-quinazolin-2-yl)-piperidin-4-ylamino]-benzoic acid tert-butyl ester], for which the MIC against S. pyogenes [1] was 3 to 6 µM (≈ 1.44 to 2.88 µg/mL); in the experiment on E. coli imp- it was 6 to 12 µM (≈ 2.88 to 5.75 µg/mL); against K. pneumoniae, above 100 µM; in the experiment on E. coli it was above 100 µM; in the experiment on S. pyogenes [2] it was 6 to 12 µM (≈ 2.88 to 5.75 µg/mL); against S. aureus it was above 100 µM. The MIC with E. faecalis was 6 to 12 µM (≈ 2.88 to 5.75 µg/mL).

As for `COc1cc2nc(N3CCC(Nc4ccc(C(=O)OC(C)(C)C)cc4[N+](=O)[O-])CC3)nc(N)c2cc1OC` [Compound 6, 4-[1-(4-Amino-6,7-dimethoxyquinazolin-2-yl)piperidin-4-ylamino]-3-nitrobenzoic acid tert-butyl ester], the values for the MIC against S. pyogenes [1] and with E. coli imp- were 50 to 100 µM (≈ 26.2 to 52.5 µg/mL) and 25 to 50 µM (≈ 13.1 to 26.2 µg/mL), respectively.

Take `COc1cc2cnc(N3CCC(Nc4ccc(C(=O)OC(C)(C)C)cc4)CC3)nc2cc1OC` [Compound 13, 4-[1-(6,7-Dimethoxyquinazolin-2-yl)piperidin-4-ylamino]benzoic acid tert-butyl ester]: the MIC against S. pyogenes [1] and in the experiment on E. coli imp- was above 20 µM in each case.

`COc1cc2nc(N3CCC(Nc4ccc(C(=O)OC(C)(C)C)cc4)CC3)nc(OC)c2cc1OC` [Compound 14, 4-[1-(4,6,7-Trimethoxyquinazolin-2-yl)piperidin-4-ylamino]benzoic acid tert-butyl ester]: the minimal inhibitory concentration (MIC) in the experiment with S. pyogenes [1] and in the experiment with E. coli imp- was below 100 µM each time.

Consider `COc1cc2nc(N3CCC(Nc4ccc(C(=O)OC(C)(C)C)cc4)CC3)[nH]c(=O)c2cc1OC` [Compound 15, 4-[1-(6,7-Dimethoxy-4-oxo-3,4-dihydroquinazolin-2-yl)piperidin-4-ylamino]benzoic acid tert-butyl ester], for which the MIC in the experiment with S. pyogenes [1] and with E. coli imp- was above 100 µM each time.

For `COc1cc2nc(N3CCC(Nc4ccc(C(=O)OC(C)(C)C)cc4)CC3)nc(Nc3ccc(C)cc3)c2cc1OC` [Compound 16, 4-[1-(6,7-Dimethoxy-4-p-tolylaminoquinazolin-2-yl)piperidin-4-ylamino]benzoic acid tert-butyl ester], the MIC in the experiment with S. pyogenes [1] lay within 2.5 to 5 µM (≈ 1.42 to 2.85 µg/mL); with E. coli imp-, 10 to 20 µM (≈ 5.7 to 11.4 µg/mL).

Regarding `CC(C)(C)OC(=O)c1ccc(NC2CCN(c3nc(N)c4ccccc4n3)CC2)cc1` [Compound 17, 4-[1-(4-Aminoquinazolin-2-yl)piperidin-4-ylamino]benzoic acid tert-butyl ester], the MIC in the experiment with S. pyogenes [1] and in the experiment on E. coli imp- was below 100 µM in each case.

Take `COc1cc2nc(N3CCC(Nc4nc(N)c(C(=O)O)nc4Cl)CC3)nc(N)c2cc1OC` [Compound 18, 3-Amino-5-[1-(4-amino-6,7-dimethoxyquinazolin-2-yl)piperidin-4-ylamino]-6-chloropyrazine-2-carboxylic acid]: the minimal inhibitory concentration (MIC) against S. pyogenes [1] and in the experiment with E. coli imp- was above 100 µM throughout.

On to `COc1cc2nc(N3CCC(Nc4cnc(C(=O)O)c(N)n4)CC3)nc(N)c2cc1OC` [Compound 19, 3-Amino-5-[1-(4-amino-6,7-dimethoxyquinazolin-2-yl)piperidin-4-ylamino]pyrazine-2-carboxylic acid], for which the MIC with S. pyogenes [1] and in the experiment with E. coli imp- was above 25 µM in each case.

On to `COc1cc2nc(N3CCC(Nc4ccc(C(=O)O)cn4)CC3)nc(N)c2cc1OC` [Compound 20, 6-[1-(4-Amino-6,7-dimethoxyquinazolin-2-yl)piperidin-4-ylamino]nicotinic acid], for which the MIC against S. pyogenes [1] was above 20 µM; in the experiment on E. coli imp-, above 50 µM.

For `COc1cc2nc(N3CCC(Nc4ccc(C(=O)O)cc4[N+](=O)[O-])CC3)nc(N)c2cc1OC` [Compound 21, 4-[1-(4-Amino-6,7-dimethoxyquinazolin-2-yl)piperidin-4-ylamino]-3-nitrobenzoic acid], the MIC in the experiment on S. pyogenes [1] and in the experiment with E. coli imp- was above 20 µM each time.

As to `COc1cc2nc(N3CCC(Nc4ccc(C(=O)O)cc4)CC3)nc(N)c2cc1OC` [Compound 22, 4-[1-(4-Amino-6,7-dimethoxyquinazolin-2-yl)piperidin-4-ylamino]benzoic acid], the minimal inhibitory concentration (MIC) with S. pyogenes [1] is above 25 µM; with E. coli imp- it was 0.4 to 2 µM (≈ 0.169 to 0.847 µg/mL); in the experiment on K. pneumoniae, 6 to 12 µM (≈ 2.54 to 5.08 µg/mL); against E. coli, 60 to 80 µM (≈ 25.4 to 33.9 µg/mL); against S. pyogenes [2] it was above 25 µM; in the experiment on S. aureus, 6 to 12 µM (≈ 2.54 to 5.08 µg/mL). Further, the minimum inhibitory concentration (MIC) with E. faecalis was above 100 µM.

For `COc1cc2cnc(N3CCC(Nc4ccc(C(=O)O)cc4)CC3)nc2cc1OC` [Compound 28, 4-[1-(6,7-Dimethoxyquinazolin-2-yl)piperidin-4-ylamino]benzoic acid], the MIC with S. pyogenes [1] and in the experiment on E. coli imp- was above 20 µM each time.

Consider `COc1cc2nc(N3CCC(Nc4ccc(C(=O)O)cc4)CC3)nc(OC)c2cc1OC` [Compound 29, 4-[1-(4,6,7-Trimethoxyquinazolin-2-yl)piperidin-4-ylamino]benzoic acid], for which the minimal inhibitory concentration (MIC) against S. pyogenes [1] and in the experiment on E. coli imp- was above 20 µM in each case.

For the compound `COc1cc2nc(N3CCC(Nc4ccc(C(=O)O)cc4)CC3)[nH]c(=O)c2cc1OC` [Compound 30, 4-[1-(6,7-Dimethoxy-4-oxo-3,4-dihydroquinazolin-2-yl)piperidin-4-ylamino]benzoic acid], the MIC in the experiment on S. pyogenes [1] and with E. coli imp- was above 20 µM in each case.

For `COc1cc2nc(N3CCC(Nc4ccc(C(=O)O)cc4)CC3)nc(Nc3ccc(C)cc3)c2cc1OC` [Compound 31, 4-[1-(6,7-Dimethoxy-4-p-tolylaminoquinazolin-2-yl)piperidin-4-ylamino]benzoic acid], the minimal inhibitory concentration (MIC) against S. pyogenes [1] and in the experiment with E. coli imp- was above 20 µM throughout.

As to `Nc1nc(N2CCC(Nc3ccc(C(=O)O)cc3)CC2)nc2ccccc12` [Compound 32, 4-[1-(4-Aminoquinazolin-2-yl)piperidin-4-ylamino]benzoic acid], the MIC against S. pyogenes [1] and with E. coli imp- was above 100 µM each time.
